How the values were obtained:
Assay type in all cases: in vivo
Conditions in all cases: 250 g/h, evaluated after 13 days
[1] = test system: Avena fatua (AVEFA); assay: Pre-emergence herbicidal glasshouse test, percentage damage
Description: (§1) Seeds of a variety of test species are sown in standard soil in pots (Lolium perenne (LOLPE), Setaria faberi (SETFA), Alopecurus myosuroides (ALOMY), Echinochloa crus-galli (ECHCG), Avena fatua (AVEFA)). After cultivation for one day (pre-emergence) or after 8 days cultivation (post-emergence) under controlled conditions in a glasshouse (at 24/16° C., day/night; 14 hours light; 65% humidity), the plants are sprayed with an aqueous spray solution derived from the formulation of the technical active ingredient in acetone/water (50:50) solution containing 0.5% Tween 20 (polyoxyethelyene sorbitan monolaurate, CAS RN 9005-64-5). Compounds are applied at […]. The test plants are then grown in a glasshouse under controlled conditions in a glasshouse (at 24/16° C., day/night; 14 hours light; 65% humidity) and watered twice daily. After 13 days for pre and post-emergence, the test is evaluated for the percentage damage caused to the plant. The biological activities are shown in the following table on a five point scale (5=80-100%; 4=60-79%; 3=40-59%; 2=20-39%; 1=0-19%).

[2] = test system: Echinochloa crus-galli (ECHCG); assay: as above
Description: as §1

[3] = test system: Lolium perenne (LOLPE); assay: as above
Description: as §1

[4] = test system: Setaria faberi (SETFA); assay: as above
Description: as §1

[5] = test system: Setaria faberi (SETFA); assay: Post-emergence herbicidal glasshouse test, percentage damage
Description: as §1
Using procedures outlines above, wheat and barley crop plants and a weed species (SETFA) are treated post-emergence with compound A11 of the present invention or comparator compound C1 (Compound A-38 from WO2014/096289) at the application rates indicated. The compounds were also applied to wheat in conjunction with the safener compound cloquintocet-mexyl (CQC) at 50 g/ha.

[6] = test system: Avena fatua (AVEFA); assay: as above
Description: as §1

[7] = test system: Echinochloa crus-galli (ECHCG); assay: as above
Description: as §1

[8] = test system: Lolium perenne (LOLPE); assay: as above
Description: as §1

Compound | AVEFA PRE percentage damage (five point scale) [1] | ECHCG PRE percentage damage (five point scale) [2] | LOLPE PRE percentage damage (five point scale) [3] | SETFA PRE percentage damage (five point scale) [4] | SETFA POST percentage damage (five point scale) [5] | AVEFA POST percentage damage (five point scale) [6] | ECHCG POST percentage damage (five point scale) [7] | LOLPE POST percentage damage (five point scale) [8]
CC#Cc1cc(C)c(C2=C(OC(=O)OC)CC3(CCN(C(=O)Cc4ccccn4)CC3)CC2=O)c(C)c1 [Compound P47] | 5 (5=80-100%) | 5 (5=80-100%) | 5 (5=80-100%) | 5 (5=80-100%) | 5 (5=80-100%) | 5 (5=80-100%) | 5 (5=80-100%) | 5 (5=80-100%)
CC#Cc1cc(C)c(C2=C(OC(=O)c3cccnc3)CC3(CCN(C(=O)c4cccnc4)CC3)CC2=O)c(C)c1 [Compound P36] | 4 (4=60-79%) | 5 (5=80-100%) | 5 (5=80-100%) | 5 (5=80-100%) | 5 (5=80-100%) | 5 (5=80-100%) | 5 (5=80-100%) | 5 (5=80-100%)
CC#Cc1cc(C)c(C2C(=O)CC3(CCN(C(=O)c4nccnc4C)CC3)CC2=O)c(C)c1 [Compound A138] | 5 (5=80-100%) | 5 (5=80-100%) | 5 (5=80-100%) | 5 (5=80-100%) | 5 (5=80-100%) | 5 (5=80-100%) | 5 (5=80-100%) | 5 (5=80-100%)
CC#Cc1cc(C)c(C2=C(OC(=O)OC)CC3(CCN(C(=O)NC(=O)c4ccccn4)CC3)CC2=O)c(C)c1 [Compound P46] | 2 (2=20-39%) | 5 (5=80-100%) | 5 (5=80-100%) | 5 (5=80-100%) | 5 (5=80-100%) | 5 (5=80-100%) | 5 (5=80-100%) | 5 (5=80-100%)
CC#Cc1cc(C)c(C2C(=O)CC3(CCN(C(=O)c4cnn(C)n4)CC3)CC2=O)c(C)c1 [Compound A126] | 5 (5=80-100%) | 5 (5=80-100%) | 5 (5=80-100%) | 5 (5=80-100%) | 5 (5=80-100%) | 5 (5=80-100%) | 5 (5=80-100%) | 5 (5=80-100%)
CC#Cc1cc(C)c(C2C(=O)CC3(CCN(C(=O)c4nccn4C)CC3)CC2=O)c(C)c1 [Compound A112] | 5 (5=80-100%) | 5 (5=80-100%) | 5 (5=80-100%) | 5 (5=80-100%) | 5 (5=80-100%) | 5 (5=80-100%) | 5 (5=80-100%) | 5 (5=80-100%)
CC#Cc1cc(C)c(C2C(=O)CC3(CCN(C(=O)c4cnc(C)cn4)CC3)CC2=O)c(C)c1 [Compound A127] | 5 (5=80-100%) | 5 (5=80-100%) | 5 (5=80-100%) | 5 (5=80-100%) | 5 (5=80-100%) | 5 (5=80-100%) | 5 (5=80-100%) | 5 (5=80-100%)
CC#Cc1cc(C)c(C2C(=O)CC3(CCN(C(=O)c4cc(OC)ccn4)CC3)CC2=O)c(C)c1 [Compound A120] | 4 (4=60-79%) | 5 (5=80-100%) | 5 (5=80-100%) | 5 (5=80-100%) | 5 (5=80-100%) | 5 (5=80-100%) | 5 (5=80-100%) | 5 (5=80-100%)
CC#Cc1cc(C)c(C2C(=O)CC3(CCN(C(=O)C4CCOC4)CC3)CC2=O)c(C)c1 (centres unmarked) [Compound A129] | 5 (5=80-100%) | 5 (5=80-100%) | 5 (5=80-100%) | 5 (5=80-100%) | 5 (5=80-100%) | 5 (5=80-100%) | 5 (5=80-100%) | 5 (5=80-100%)
CC#Cc1cc(C)c(C2C(=O)CC3(CCN(C(=O)c4csnn4)CC3)CC2=O)c(C)c1 [Compound A135] | 5 (5=80-100%) | 5 (5=80-100%) | 5 (5=80-100%) | 5 (5=80-100%) | 5 (5=80-100%) | 5 (5=80-100%) | 5 (5=80-100%) | 5 (5=80-100%)
CC#Cc1cc(C)c(C2=C(OC(=O)OC)CC3(CCN(C(=O)c4ccncc4)CC3)CC2=O)c(C)c1 [Compound P45] | 5 (5=80-100%) | 5 (5=80-100%) | 5 (5=80-100%) | 5 (5=80-100%) | 5 (5=80-100%) | 5 (5=80-100%) | 5 (5=80-100%) | 5 (5=80-100%)
CC#Cc1cc(C)c(C2C(=O)CC3(CCN(C(=O)c4ncccc4C#N)CC3)CC2=O)c(C)c1 [Compound A114] | 4 (4=60-79%) | 5 (5=80-100%) | 5 (5=80-100%) | 5 (5=80-100%) | 5 (5=80-100%) | 5 (5=80-100%) | 5 (5=80-100%) | 5 (5=80-100%)
CC#Cc1cc(C)c(C2C(=O)CC3(CCN(C(=O)CCOC)CC3)CC2=O)c(C)c1 [Compound A124] | 5 (5=80-100%) | 5 (5=80-100%) | 5 (5=80-100%) | 5 (5=80-100%) | 5 (5=80-100%) | 5 (5=80-100%) | 5 (5=80-100%) | 5 (5=80-100%)
CC#Cc1cc(C)c(C2C(=O)CC3(CCN(C(=O)C4CCCO4)CC3)CC2=O)c(C)c1 (centres unmarked) [Compound A139] | 5 (5=80-100%) | 5 (5=80-100%) | 5 (5=80-100%) | 5 (5=80-100%) | 5 (5=80-100%) | 5 (5=80-100%) | 5 (5=80-100%) | 5 (5=80-100%)
CC#Cc1cc(C)c(C2C(=O)CC3(CCN(C(=O)c4cnc(C#N)s4)CC3)CC2=O)c(C)c1 [Compound A106] | 2 (2=20-39%) | 4 (4=60-79%) | 3 (3=40-59%) | 4 (4=60-79%) | 5 (5=80-100%) | 5 (5=80-100%) | 3 (3=40-59%) | 3 (3=40-59%)
CC#Cc1cc(C)c(C2C(=O)CC3(CCN(C(=O)NC(=O)C4CC4)CC3)CC2=O)c(C)c1 [Compound A141] | 4 (4=60-79%) | 5 (5=80-100%) | 5 (5=80-100%) | 5 (5=80-100%) | 5 (5=80-100%) | 5 (5=80-100%) | 5 (5=80-100%) | 5 (5=80-100%)

From US12043599B2, “Herbicidal compounds” (SYNGENTA PARTICIPATIONS AG, priority 2018, dated 2024)
